The values that follow come from patent EP3516395B1, “METHOD FOR DETERMINING AFFINITY BETWEEN LIGANDS AND A TARGET” (Plant Advanced Technologies Pat, priority 2016, dated 2018).

In test [1] the test system is trypsine. The test can be described thus: Affinity by binding, ultrafiltration and UPLC-MS, control target (Example 5). As to conditions: chromatogram C, figure 3. Here is the method:
(§1) Une solution de travail de hyaluronidase de testicules bovins à 5 mg/mL est préparée en dissolvant de la poudre de l'enzyme lyophilisée dans un tampon phosphate salin à 50 mM, avec un pH de 7,0. Une solution de travail de trypsine (la cible témoin) est préparée de la même manière que celle de hyaluronidase. L'échantillon est préparé en utilisant l'un des solvants suivants : des glycols, DMSO (diméthylsulfoxide), l'éthanol pur ou en solution dans l'eau. La concentration dans l'échantillon de ligand initial doit être dans la gamme de 0,75 à 1 mM. Le ligand choisi (quercétine) est un inhibiteur connu de l'hyaluronidase (Asian J. Chem. 2013, 25, 10262-10266). Un échantillon de référence est préparé également en diluant l'échantillon de 10 à 20 fois dans une solution de trois quarts de volume d'acétonitrile et d'un quart de volume d'eau. […]

The test system of test [2] is trypsine. As to conditions: 2660 µM; International Journal of Food Science & Technology 2014, 49, 1063-1069; cited from earlier work.
Test [3] relates to hyaluronidase de testicules bovins. Briefly: Affinity by binding, ultrafiltration and UPLC-MS (Example 5). The following applies: chromatogram B, figure 3. As to the method:
as §1

Another test concerns hyaluronidase. As to conditions: 200 µM; Asian J. Chem. 2013, 25, 10262-10266; cited from earlier work.
In a further test the target is tyrosinase. As to conditions: literature values, 50% reduction of enzyme activity; cited from earlier work.
Another test has as its system tyrosinase de champignon. The test can be described thus: Relative affinity by competitive binding, ultrafiltration and UPLC-MS/UV (Example 1). The following applies: equimolar ligands. Here is the method: Une solution de travail de tyrosinase de champignon à 1.25 mg/mL est préparée en dissolvant de la poudre de l'enzyme lyophilisée dans 50 mM d'acétate d'ammonium, avec un pH de 7.0. L'échantillon est préparé en utilisant l'un des solvants suivants : des glycols, DMSO (diméthylsulfoxide), l'éthanol, pur ou en solution dans l'eau. La concentration dans l'échantillon des ligands initiaux est équimolaire et doit être dans la gamme de 0,75 à 1 mM. Les ligands choisis étaient des inhibiteurs connus de la tyrosinase isolés depuis des racines de murier noir (Morus nigra) : la moracénine A, moracénine B et la kuwanone C. Un échantillon de référence est préparé également en diluant l'échantillon de 10 à 20 fois dans une solution d'eau et d'un quart de volume d'acétonitrile.
• 1. Étape de préconditionnement - Des puits à membrane filtrante sont pré-conditionnées avec un volume de 500 µl d'une solution à 85% d'acétate d'ammonium et 15% d'éthanol qui est passé à travers la membrane avec une centrifugation de 14000 g pendant 60 secondes. • 2. Étape de liaison - La préparation de tyrosinase (1.25 mg/mL, 75 µL) est mélangée avec 5 µl de l'échantillon dans un tube d'Eppendorf en plastique, puis est incubée pendant 5 min. Dans ce mélange, on a 9,16 µM de tyrosinase et une gamme de 46,88 µM à 62,5 µM de ligands (moracénine A, moracénine B et kuwanone C) soit un ratio ligands/cible allant de 5,12 à 6,83. • 3. Étape de lavage - le mélange de l'enzyme et de l'échantillon est déposé dans un puits préconditionné à l'étape de préconditionnement, puis centrifugé à 14000 g jusqu'à l'élimination de l'essentiel du solvant. Les complexes enzyme-ligands restent à la surface de la membrane du filtre puis sont à nouveau suspendu dans un volume de 100 µL de la même solution à 85% d'acétate d'ammonium et 15% d'éthanol et centrifugé à 14000 g jusqu'à élimination du solvant. Cette procédure est répétée trois fois et élimine tous les composés qui ne sont pas liés à l'enzyme. • 4. Étape de séparation - Les complexes enzyme-ligands retenus dans le filtre sont à nouveau suspendus dans un volume de 10 µL d'eau ultra-pure, puis sont mélangés avec un volume de 40 µL d'acétonitrile pour dénaturer et précipiter l'enzyme et, en même temps libérer les ligands. Le mélange est centrifugé à 21000 g pendant 10 min pour séparer le précipité du surnageant. • 5. Étape d'analyse - Ledit surnageant formant la solution traitée est analysé par chromatographie en phase liquide couplée à une spectrométrie de masse, connue également par l'acronyme UPLC-MS. L'échantillon de référence est analysé également de la même manière, en utilisant les mêmes conditions d'analyse. Les affinités relatives sont calculées selon la méthode décrite ci-après. De préférence, l'échantillon de référence et la solution traitée sont analysés séquentiellement pour éliminer des dispersions dues aux réglages de l'appareillage.
Une analyse par chromatographie en phase liquide fournit un chromatogramme tel que montré par les figures 1 et 2. Le chromatogramme représente une intensité de signal en fonction du temps de rétention dans une colonne. Le signal présente différents pics d'intensité variable. Chaque pic est associé à l'un des ligands présent dans l'échantillon et la solution traitée. • 1. Normalisation de l'intensité du signal analytique pour les ligands dans l'échantillon de référence. Pour chaque chaque ligand CEi dans l'échantillon de référence, on établit des facteurs de normalisation NFeq dudit ligand CEi par comparaison au ligand de référence REF, selon l'équation suivante : NFeq,CEi = (ISeq,CEi)/(ISeq,REF) [formula] où : • NF est un facteur de normalisation; • ISeq,CEi est l'intensité du signal analytique pour le ligand CEi dans l'échantillon; • ISeq,REF est l'intensité du signal analytique pour le ligand de référence REF dans l'échantillon. L'intensité peut être choisie parmi l'aire du pic ou la valeur maximale du pic. Le facteur de normalisation du ligand de référence vaut toujours 1. • 2. […]

As for `O=c1c(O)c(-c2ccc(O)c(O)c2)oc2cc(O)cc(O)c12` [quercétine], the affinité result in the test with trypsine [1] is listed as “très faible affinité”; in test [3] it was “affinité importante”. Further, the “inhibition de la trypsine” value with trypsine [2] is on record as 46%. For the same compound, the “inhibition de l'hyaluronidase” value in the test with hyaluronidase is reported as 54%.
In general, IC50 refers to the concentration at which inhibition is half-maximal. Turning to moracénine A, the IC50 at tyrosinase is 10.3 µM. For the same compound, the “Facteur de normalisation, solution traitée” value in the test with tyrosinase de champignon (NFTB, peak area UV 270 nm relative to reference ligand moracénine B) is recorded as 1,29. The Affinités relatives with tyrosinase de champignon (RA = NFTB/NFeq, reference ligand moracénine B) is recorded as 1,50.
